Data reported in patent US6544985B2, “Dihydro-benzo [b][1,4]diazepin-2-one derivatives” (Hoffman-La Roche Inc., priority 2001, dated 2003).

Row | melting point | SMILES
1 | > 250 °C | CN(C)c1cc2c(cc1Cl)NC(=O)CC(c1cccc(C#N)c1)=N2 [Example 1, 3-(7-Chloro-8-dimethylamino-4-oxo-4,5-dihydro-3H-benzo[b][1,4]diazepin-2-yl)-benzonitrile]
2 | 222 to 225 °C | CN(C)c1cc2c(cc1Cl)NC(=O)CC(c1cccc(-n3ccnn3)c1)=N2 [Example 2, 8-Chloro-7-dimethylamino-4-(3-[1,2,3]triazol-1-yl-phenyl)-1,3-dihydro-benzo[b][1,4]diazepin-2-one]
3 | 215 to 216 °C | CN(C)c1cc2c(cc1C#Cc1ccccc1)NC(=O)CC(c1cccc(C#N)c1)=N2 [Example 4, 3-(8-Dimethylamino-4-oxo-7-phenylethynyl-4,5-dihydro-3H-benzo[b][1,4]diazepin-2-yl)-benzonitrile]
4 | 185 to 186 °C | CN(C)c1cc2c(cc1C#Cc1ccccc1)NC(=O)CC(c1cccc(-n3ccnn3)c1)=N2 [Example 5, 7-Dimethylamino-8-phenylethynyl-4-(3-[1,2,3]triazol-1-yl-phenyl)-1,3-dihydro-benzo[b][1,4]diazepin-2-one]
5 | 212 to 215 °C | Cc1cc(-c2cccc(C3=Nc4cc(N(C)C)c(Cl)cc4NC(=O)C3)c2)on1 [Example 6, 8-Chloro-7-dimethylamino-4-[3-(3-methyl-isoxazol-5-yl)-phenyl]-1,3-dihydro-benzo[b][1,4]diazepin-2-one]
6 | > 250 °C | Cc1cc(-c2cc(C3=Nc4cc(N(C)C)c(Cl)cc4NC(=O)C3)ccn2)on1 [Example 10, 8-Chloro-7-dimethylamino-4-[2-(3-methyl-isoxazol-5-yl)-pyridin-4-yl]-1,3-dihydro-benzo[b][1,4]diazepin-2-one]
7 | 213 °C | COCCN(C)c1cc2c(cc1Cl)NC(=O)CC(c1ccnc(-c3cc(C)no3)c1)=N2 [Example 12, 8-Chloro-7-[(2-methoxy-ethyl)-methyl-amino]-4-[2-(3-methyl-isoxazol-5-yl)-pyridin-4-yl]-1,3-dihydro-benzo[b][1,4]diazepin-2-one]
8 | 185 °C | COCCN(C)c1cc2c(cc1Cl)NC(=O)CC(c1cccc(-n3nncc3CO)c1)=N2 [Example 13, 8-Chloro-4-[3-(5-hydroxymethyl-[1,2,3]triazol-1-yl)-phenyl]-7-[(2-methoxy-ethyl)-methyl-amino]-1,3-dihydro-benzo[b][1,4]diazepin-2-one]
9 | 156 °C | COCCN(C)c1cc2c(cc1Cl)NC(=O)CC(c1cccc(-n3ccnn3)c1)=N2 [Example 14, 8-Chloro-7-[(2-methoxy-ethyl)-methyl-amino]-4-(3-[1,2,3]triazol-1-yl-phenyl)-1,3-dihydro-benzo[b][1,4]diazepin-2-one]
10 | 216 °C | CN(C)c1cc2c(cc1Cl)NC(=O)CC(c1ccnc(C#N)c1)=N2 [Example 15, 4-(7-Chloro-8-dimethylamino-4-oxo-4,5-dihydro-3H-benzo[b][1,4]diazepin-2-yl)-pyridine-2-carbonitrile]
11 | 210 °C | CN(C)c1cc2c(cc1C(F)(F)F)NC(=O)CC(c1cccc(-n3nncc3CO)c1)=N2 [Example 17, 7-Dimethylamino-4-[3-(5-hydroxymethyl-[1,2,3]triazol-1-yl)-phenyl]-8-trifluoromethyl-1,3-dihydro-benzo[b][1,4]diazepin-2-one]
12 | 223 °C | Cc1cc(-c2cccc(C3=Nc4cc(N(C)C)c(C(F)(F)F)cc4NC(=O)C3)c2)on1 [Example 18, 7-Dimethylamino-4-[3-(3-methyl-isoxazol-5-yl)-phenyl]-8-trifluoromethyl-1,3-dihydro-benzo[b][1,4]diazepin-2-one]
13 | 145 to 160 °C | CN(C)Cc1cnnn1-c1cccc(C2=Nc3cc(N(C)C)c(Cl)cc3NC(=O)C2)c1 [Example 20, 8-Chloro-7-dimethylamino-4-[3-(5-dimethylaminomethyl-[1,2,3]triazol-1-yl)-phenyl]-1,3-dihydro-benzo[b][1,4]diazepin-2-one]
14 | 191 °C | COCc1cc(-c2cccc(C3=Nc4cc(N(C)C)c(Cl)cc4NC(=O)C3)c2)on1 [Example 21, 8-Chloro-7-dimethylamino-4-[3-(3-methoxymethyl-isoxazol-5-yl)-phenyl]-1,3-dihydro-benzo[b][1,4]diazepin-2-one]
15 | 248 °C | CN(C)c1cc2c(cc1C(F)(F)F)NC(=O)CC(c1ccnc(C#N)c1)=N2 [Example 22, 4-(8-Dimethylamino-4-oxo-7-trifluoromethyl-4,5-dihydro-3H-benzo[b][1,4]diazepin-2-yl)-pyridine-2-carbonitrile]
16 | 208 to 210 °C | O=C1CC(c2cccc(-n3ccnc3)c2)=Nc2cc(OCC(F)(F)F)c(-c3ccccc3F)cc2N1 [Example 23, 8-(2-Fluoro-phenyl)-4-(3-imidazol-1-yl-phenyl)-7-(2,2,2-trifluoro-ethoxy)-1,3-dihydro-benzo[b][1,4]diazepin-2-one]
17 | 232 to 234 °C | O=C1CC(c2cccc(-n3nncc3CO)c2)=Nc2cc(OCC(F)(F)F)c(-c3ccccc3F)cc2N1 [Example 26, 8-(2-Fluoro-phenyl)-4-[3-(5-hydroxymethyl-[1,2,3]triazol-1-yl)-phenyl]-7-(2,2,2-trifluoro-ethoxy)-1,3-dihydro-benzo[b][1,4]diazepin-2-one]

Row | melting point | SMILES
18 | 206 °C (dec.) | CCN(C)c1cc2c(cc1Cl)NC(=O)CC(c1cccc(-n3nncc3CO)c1)=N2 [Example 28, 8-Chloro-7-(ethyl-methyl-amino)-4-[3-(5-hydroxymethyl-[1,2,3]triazol-1-yl)-phenyl]-1,3-dihydro-benzo[b][1,4]diazepin-2-one]
19 | 132 °C | CN(C)c1cc2c(cc1Cl)NC(=O)CC(c1cccc(-c3cc(CO)no3)c1)=N2 [Example 31, 8-Chloro-7-dimethylamino-4-[3-(3-hydroxymethyl-isoxazol-5-yl)-phenyl]-1,3-dihydro-benzo[b][1,4]diazepin-2-one]
20 | 225 °C | CN(C)c1cc2c(cc1C(F)(F)F)NC(=O)CC(c1cccc(-c3ccnn3C)c1)=N2 [Example 33, 7-Dimethylamino-4-[3-(2-methyl-2H-pyrazol-3-yl)-phenyl]-8-trifluoromethyl-1,3-dihydro-benzo[b][1,4]diazepin-2-one]
21 | 199 to 201 °C | CN(c1cc2c(cc1Cl)NC(=O)CC(c1ccnc(C#N)c1)=N2)C1CC1 [Example 34, 4-[7-Chloro-8-(cyclopropyl-methyl-amino)-4-oxo-4,5-dihydro-3H-benzo[b][1,4]diazepin-2-yl]-pyridine-2-carbonitrile]
22 | 232 to 233 °C | Cc1noc(-c2cccc(C3=Nc4cc(N(C)C)c(Cl)cc4NC(=O)C3)c2)c1CO [Example 35, 8-Chloro-7-dimethylamino-4-[3-(4-hydroxymethyl-3-methyl-isoxazol-5-yl)-phenyl]-1,3-dihydro-benzo[b][1,4]diazepin-2-one]
23 | 195 to 197 °C | Cc1cc(-c2cccc(C3=Nc4cc(N(C)C5CC5)c(Cl)cc4NC(=O)C3)c2)on1 [Example 36, 8-Chloro-7-(cyclopropyl-methyl-amino)-4-[3-(3-methyl-isoxazol-5-yl)-phenyl]-1,3-dihydro-benzo[b][1,4]diazepin-2-one]
24 | 200 °C | CN(C)Cc1cnnn1-c1cccc(C2=Nc3cc(N(C)C)c(C(F)(F)F)cc3NC(=O)C2)c1 [Example 38, 7-Dimethylamino-4-[3-(5-dimethylaminomethyl-[1,2,3]triazol-1-yl)-phenyl]-8-trifluoromethyl-1,3-dihydro-benzo[b][1,4]diazepin-2-one]
25 | 184 °C | CN(C)c1cc2c(cc1Cl)NC(=O)CC(c1cccc(-c3cc(CO)nn3C)c1)=N2 [Example 39, 8-Chloro-7-dimethylamino-4-[3-(5-hydroxymethyl-2-methyl-2H-pyrazol-3-yl)-phenyl]-1,3-dihydro-benzo[b][1,4]diazepin-2-one]
26 | 188 °C (dec.) | N#Cc1cc(C2=Nc3cc(N4CCCC4)c(C(F)(F)F)cc3NC(=O)C2)ccn1 [Example 40, 4-(4-Oxo-8-pyrrolidin-1-yl-7-trifluoromethyl-4,5-dihydro-3H-benzo[b][1,4]diazepin-2-yl)-pyridine-2-carbonitrile]
27 | 134 °C | O=C1CC(c2cccc(-n3nncc3CO)c2)=Nc2cc(N3CCCC3)c(C(F)(F)F)cc2N1 [Example 41, 4-[3-(5-Hydroxymethyl-[1,2,3]triazol-1-yl)-phenyl]-7-pyrrolidin-1-yl-8-trifluoromethyl-1,3-dihydro-benzo[b][1,4]diazepin-2-one]
28 | 75 °C | CN(C)c1cc2c(cc1F)NC(=O)CC(c1cccc(-n3nncc3CO)c1)=N2 [Example 42, 7-Dimethylamino-8-fluoro-4-[3-(5-hydroxymethyl-[1,2,3]triazol-1-yl)-phenyl]-1,3-dihydro-benzo[b][1,4]diazepin-2-one]
29 | 181 °C | CN(C)Cc1cnnn1-c1cccc(C2=Nc3cc(N(C)C)c(F)cc3NC(=O)C2)c1 [Example 43, 7-Dimethylamino-4-[3-(5-dimethylaminomethyl-[1,2,3]triazol-1-yl)-phenyl]-8-fluoro-1,3-dihydro-benzo[b][1,4]diazepin-2-one]
30 | 187 °C | CN(C)c1cc2c(cc1F)NC(=O)CC(c1cccc(-c3cc(CO)no3)c1)=N2 [Example 44, 7-Dimethylamino-8-fluoro-4-[3-(3-hydroxymethyl-isoxazol-5-yl)-phenyl]-1,3-dihydro-benzo[b][1,4]diazepin-2-one]
31 | 180 to 182 °C | CN(C)c1cc2c(cc1Cl)NC(=O)CC(c1cccc(-n3nncc3CN3CCCC3)c1)=N2 [Example 45, 8-Chloro-7-dimethylamino-4-[3-(5-pyrrolidin-1-ylmethyl-[1,2,3]triazol-1-yl)-phenyl]-1,3-dihydro-benzo[b][1,4]diazepin-2-one]
32 | 153 °C | CN(C)c1cc2c(cc1Cl)NC(=O)CC(c1cccc(-n3nncc3CN3CCC3)c1)=N2 [Example 48, 4-[3-(5-Azetidin-1-ylmethyl-[1,2,3]triazol-1-yl)-phenyl]-8-chloro-7-dimethylamino-1,3-dihydro-benzo[b][1,4]diazepin-2-one]
33 | 211 °C (dec.) | CN(C)c1cc2c(cc1Cl)NC(=O)CC(c1cccc(-c3cc(CO)on3)c1)=N2 [Example 49, 8-Chloro-7-dimethylamino-4-[3-(5-hydroxymethyl-isoxazol-3-yl)-phenyl]-1,3-dihydro-benzo[b][1,4]diazepin-2-one]
